Results published in ChEMBL document CHEMBL1909046, “DrugMatrix in vitro pharmacology data”.

How the values were obtained:
[1] = target: Nitric oxide synthase 1 (Rattus norvegicus, UniProt P29476); format: tissue-based, Cerebellum; further: in other assays of this panel Not Active means under 50% inhibition at 10 µM
[2] = target: Estrogen receptor beta (Homo sapiens, UniProt Q92731); details: sf9; further: in other assays of this panel Not Active means under 50% inhibition at 10 µM
[3] = target: 5-hydroxytryptamine receptor 2B (Homo sapiens, UniProt P41595); format: cell membranes, CHO-K1, Membrane; further: in other assays of this panel Not Active means under 50% inhibition at 10 µM
[4] = target: Cytochrome P450 2D6 (Homo sapiens, UniProt P10635); details: bti-tn-5b1-4; further: in other assays of this panel Not Active means under 50% inhibition at 10 µM
Sequence of Cytochrome P450 2D6 (P10635 whole entry): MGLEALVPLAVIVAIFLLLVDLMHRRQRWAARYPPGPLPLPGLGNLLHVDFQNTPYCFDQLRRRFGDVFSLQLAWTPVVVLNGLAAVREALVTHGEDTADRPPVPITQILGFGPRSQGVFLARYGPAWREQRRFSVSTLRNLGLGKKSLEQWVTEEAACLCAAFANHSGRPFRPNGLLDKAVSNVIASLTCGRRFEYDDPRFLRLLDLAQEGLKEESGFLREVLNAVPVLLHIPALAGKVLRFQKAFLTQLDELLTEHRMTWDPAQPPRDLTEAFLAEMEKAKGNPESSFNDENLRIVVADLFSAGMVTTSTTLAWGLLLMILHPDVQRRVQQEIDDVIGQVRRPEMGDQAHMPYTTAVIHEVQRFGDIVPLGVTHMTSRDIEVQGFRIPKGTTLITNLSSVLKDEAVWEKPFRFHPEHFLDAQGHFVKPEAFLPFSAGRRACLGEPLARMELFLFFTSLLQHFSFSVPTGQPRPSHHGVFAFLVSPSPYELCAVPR

[5] = target: Sodium-dependent noradrenaline transporter (Homo sapiens, UniProt P23975); assay: DRUGMATRIX: Norepinephrine Transporter radioligand binding (ligand: [125I] RTI-55); format: cell membranes, MDCK, Membrane; details: Not Active = under 50% inhibition at 10 µM
Sequence of Sodium-dependent noradrenaline transporter (P23975 whole entry): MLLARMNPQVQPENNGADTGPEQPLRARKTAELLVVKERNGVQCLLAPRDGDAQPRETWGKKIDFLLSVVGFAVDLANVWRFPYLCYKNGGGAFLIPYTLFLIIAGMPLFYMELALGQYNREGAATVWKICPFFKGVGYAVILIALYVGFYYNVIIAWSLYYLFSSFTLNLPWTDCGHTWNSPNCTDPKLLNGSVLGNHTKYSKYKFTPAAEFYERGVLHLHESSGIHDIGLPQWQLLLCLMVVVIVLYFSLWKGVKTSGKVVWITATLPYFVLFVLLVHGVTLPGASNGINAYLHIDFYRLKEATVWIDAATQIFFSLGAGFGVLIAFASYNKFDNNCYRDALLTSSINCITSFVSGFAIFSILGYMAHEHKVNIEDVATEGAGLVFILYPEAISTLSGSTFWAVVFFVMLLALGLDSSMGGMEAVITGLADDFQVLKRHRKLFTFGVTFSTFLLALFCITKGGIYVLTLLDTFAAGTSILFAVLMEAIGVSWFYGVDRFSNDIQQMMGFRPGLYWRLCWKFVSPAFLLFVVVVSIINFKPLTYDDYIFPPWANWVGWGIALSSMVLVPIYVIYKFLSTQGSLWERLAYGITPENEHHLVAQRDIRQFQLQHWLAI

[6] = target: Voltage-gated inwardly rectifying potassium channel KCNH2 (Homo sapiens, UniProt Q12809); details: hek293; further: in other assays of this panel Not Active means under 50% inhibition at 10 µM
Sequence of Voltage-gated inwardly rectifying potassium channel KCNH2 (Q12809 whole entry): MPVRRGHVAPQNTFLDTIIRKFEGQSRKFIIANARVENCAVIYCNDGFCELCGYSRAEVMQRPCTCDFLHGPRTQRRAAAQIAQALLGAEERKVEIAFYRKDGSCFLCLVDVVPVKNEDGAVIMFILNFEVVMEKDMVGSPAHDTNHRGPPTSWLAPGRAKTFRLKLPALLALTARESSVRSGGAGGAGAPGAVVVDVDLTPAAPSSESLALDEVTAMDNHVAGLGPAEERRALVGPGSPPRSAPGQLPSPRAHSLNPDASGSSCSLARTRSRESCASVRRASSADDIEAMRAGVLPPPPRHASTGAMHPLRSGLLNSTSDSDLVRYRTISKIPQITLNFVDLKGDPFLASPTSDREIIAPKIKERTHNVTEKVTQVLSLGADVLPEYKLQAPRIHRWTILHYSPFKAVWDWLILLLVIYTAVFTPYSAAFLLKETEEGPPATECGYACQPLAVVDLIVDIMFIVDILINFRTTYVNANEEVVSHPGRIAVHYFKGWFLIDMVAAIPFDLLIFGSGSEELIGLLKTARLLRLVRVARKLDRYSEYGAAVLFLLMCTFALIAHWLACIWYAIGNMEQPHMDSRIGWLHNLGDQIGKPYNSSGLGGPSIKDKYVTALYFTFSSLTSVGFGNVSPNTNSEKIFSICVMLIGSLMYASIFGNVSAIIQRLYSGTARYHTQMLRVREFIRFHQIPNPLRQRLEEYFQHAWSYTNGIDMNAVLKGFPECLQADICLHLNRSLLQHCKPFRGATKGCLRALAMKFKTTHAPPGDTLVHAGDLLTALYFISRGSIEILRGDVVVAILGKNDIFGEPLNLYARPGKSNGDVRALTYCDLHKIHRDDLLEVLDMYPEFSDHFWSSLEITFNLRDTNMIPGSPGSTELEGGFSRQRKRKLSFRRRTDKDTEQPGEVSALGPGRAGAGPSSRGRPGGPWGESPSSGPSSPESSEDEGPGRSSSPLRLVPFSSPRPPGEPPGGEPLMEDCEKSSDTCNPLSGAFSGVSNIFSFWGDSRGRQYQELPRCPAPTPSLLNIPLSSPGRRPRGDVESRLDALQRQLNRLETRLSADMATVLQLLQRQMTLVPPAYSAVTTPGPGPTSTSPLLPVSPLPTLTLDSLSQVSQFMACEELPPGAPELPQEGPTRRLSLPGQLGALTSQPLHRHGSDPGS

[7] = target: T1, Estrogen receptor (Homo sapiens, UniProt P03372); details: sf9; further: in other assays of this panel Not Active means under 50% inhibition at 10 µM
T1 sequence (P03372 whole entry): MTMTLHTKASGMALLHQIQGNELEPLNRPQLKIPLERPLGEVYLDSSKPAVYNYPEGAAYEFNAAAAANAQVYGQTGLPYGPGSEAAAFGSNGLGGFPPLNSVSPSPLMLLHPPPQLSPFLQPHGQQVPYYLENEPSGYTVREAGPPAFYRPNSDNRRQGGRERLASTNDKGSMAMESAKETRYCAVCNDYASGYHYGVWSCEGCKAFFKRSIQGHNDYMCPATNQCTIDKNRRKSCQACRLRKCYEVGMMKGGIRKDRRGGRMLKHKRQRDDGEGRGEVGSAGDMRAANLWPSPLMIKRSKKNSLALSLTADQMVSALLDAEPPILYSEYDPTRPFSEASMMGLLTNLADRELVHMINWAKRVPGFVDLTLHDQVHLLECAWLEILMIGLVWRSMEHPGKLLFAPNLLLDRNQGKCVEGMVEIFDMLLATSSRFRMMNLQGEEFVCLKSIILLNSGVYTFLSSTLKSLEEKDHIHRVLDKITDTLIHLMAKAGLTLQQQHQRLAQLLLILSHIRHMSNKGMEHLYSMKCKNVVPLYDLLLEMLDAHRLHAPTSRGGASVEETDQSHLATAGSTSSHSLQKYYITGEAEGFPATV

[8] = DRUGMATRIX: Glutamate, NMDA, Agonism radioligand binding (ligand: [3H] CGP-39653); format: cell membranes, Rattus norvegicus, Wistar, Cerebral cortex, Membrane; details: Not Active = under 50% inhibition at 10 µM
[9] = target: T2, Muscarinic acetylcholine receptor M5 (Homo sapiens, UniProt P08912); format: cell membranes, CHO-K1, Membrane; details: cho-k1; further: in other assays of this panel Not Active means under 50% inhibition at 10 µM
T2 sequence (P08912 whole entry): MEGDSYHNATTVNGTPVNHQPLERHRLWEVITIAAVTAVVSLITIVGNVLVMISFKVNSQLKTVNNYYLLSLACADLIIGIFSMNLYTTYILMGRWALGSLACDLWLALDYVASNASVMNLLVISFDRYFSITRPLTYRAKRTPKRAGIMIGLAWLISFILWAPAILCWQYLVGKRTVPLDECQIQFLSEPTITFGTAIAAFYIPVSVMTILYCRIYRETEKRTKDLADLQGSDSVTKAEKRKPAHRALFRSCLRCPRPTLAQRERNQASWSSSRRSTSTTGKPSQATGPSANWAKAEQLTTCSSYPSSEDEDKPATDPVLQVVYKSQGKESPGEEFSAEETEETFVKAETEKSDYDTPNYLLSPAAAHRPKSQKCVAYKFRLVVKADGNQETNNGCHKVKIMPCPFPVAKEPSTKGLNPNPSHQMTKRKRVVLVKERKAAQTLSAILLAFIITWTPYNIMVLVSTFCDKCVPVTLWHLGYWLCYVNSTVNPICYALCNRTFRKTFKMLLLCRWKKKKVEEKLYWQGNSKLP

[10] = DRUGMATRIX: Potassium Channel [KATP] radioligand binding (ligand: [3H] Glyburide); format: cell membranes, Membrane; details: hit-t15; Not Active = under 50% inhibition at 10 µM
[11] = target: T3, Glucocorticoid receptor (Homo sapiens, UniProt P04150); details: hela s3; further: in other assays of this panel Not Active means under 50% inhibition at 10 µM
T3 sequence (P04150 whole entry): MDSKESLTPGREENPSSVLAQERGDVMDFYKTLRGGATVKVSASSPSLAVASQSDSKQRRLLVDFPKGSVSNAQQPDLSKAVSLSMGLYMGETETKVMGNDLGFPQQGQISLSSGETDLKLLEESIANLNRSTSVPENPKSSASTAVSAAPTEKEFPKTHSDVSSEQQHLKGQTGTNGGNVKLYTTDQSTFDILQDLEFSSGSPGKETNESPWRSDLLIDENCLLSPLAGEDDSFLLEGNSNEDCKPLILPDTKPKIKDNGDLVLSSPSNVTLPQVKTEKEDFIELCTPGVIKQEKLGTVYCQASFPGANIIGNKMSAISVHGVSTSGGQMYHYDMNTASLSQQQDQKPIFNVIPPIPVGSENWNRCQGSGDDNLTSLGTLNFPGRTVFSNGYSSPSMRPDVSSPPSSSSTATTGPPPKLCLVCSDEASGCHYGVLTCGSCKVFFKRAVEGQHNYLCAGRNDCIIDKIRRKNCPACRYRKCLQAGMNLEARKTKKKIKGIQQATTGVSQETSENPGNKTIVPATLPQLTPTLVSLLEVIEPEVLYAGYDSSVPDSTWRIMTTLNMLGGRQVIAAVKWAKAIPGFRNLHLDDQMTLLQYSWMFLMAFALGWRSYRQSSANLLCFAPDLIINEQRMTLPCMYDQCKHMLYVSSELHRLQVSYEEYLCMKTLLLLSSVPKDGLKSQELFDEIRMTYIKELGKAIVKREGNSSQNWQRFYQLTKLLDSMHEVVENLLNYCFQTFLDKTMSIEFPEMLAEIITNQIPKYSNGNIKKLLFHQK

[12] = target: Cytochrome P450 2C19 (Homo sapiens, UniProt P33261); details: bti-tn-5b1-4; further: in other assays of this panel Not Active means under 50% inhibition at 10 µM
Sequence of Cytochrome P450 2C19 (P33261 whole entry): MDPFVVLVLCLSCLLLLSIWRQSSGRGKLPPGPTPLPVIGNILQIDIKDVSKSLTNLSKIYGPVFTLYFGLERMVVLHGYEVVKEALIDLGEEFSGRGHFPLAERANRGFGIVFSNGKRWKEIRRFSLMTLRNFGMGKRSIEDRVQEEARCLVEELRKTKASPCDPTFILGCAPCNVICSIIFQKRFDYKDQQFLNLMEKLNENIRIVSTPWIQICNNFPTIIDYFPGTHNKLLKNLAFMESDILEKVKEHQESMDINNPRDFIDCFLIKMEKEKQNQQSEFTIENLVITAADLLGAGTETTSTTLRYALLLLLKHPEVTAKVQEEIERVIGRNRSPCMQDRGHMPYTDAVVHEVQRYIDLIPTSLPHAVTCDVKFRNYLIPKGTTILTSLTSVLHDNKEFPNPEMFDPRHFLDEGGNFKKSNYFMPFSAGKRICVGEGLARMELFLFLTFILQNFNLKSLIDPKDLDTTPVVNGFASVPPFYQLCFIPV

[13] = DRUGMATRIX: GABAA, Flunitrazepam, Central radioligand binding (ligand: [3H] Flunitrazepam); format: cell membranes, Rattus norvegicus, Wistar, Brain, Membrane; details: Not Active = under 50% inhibition at 10 µM
[14] = target: Cytochrome P450 3A4 (Homo sapiens, UniProt P08684); details: bti-tn-5b1-4; further: in other assays of this panel Not Active means under 50% inhibition at 10 µM
Sequence of Cytochrome P450 3A4 (P08684 whole entry): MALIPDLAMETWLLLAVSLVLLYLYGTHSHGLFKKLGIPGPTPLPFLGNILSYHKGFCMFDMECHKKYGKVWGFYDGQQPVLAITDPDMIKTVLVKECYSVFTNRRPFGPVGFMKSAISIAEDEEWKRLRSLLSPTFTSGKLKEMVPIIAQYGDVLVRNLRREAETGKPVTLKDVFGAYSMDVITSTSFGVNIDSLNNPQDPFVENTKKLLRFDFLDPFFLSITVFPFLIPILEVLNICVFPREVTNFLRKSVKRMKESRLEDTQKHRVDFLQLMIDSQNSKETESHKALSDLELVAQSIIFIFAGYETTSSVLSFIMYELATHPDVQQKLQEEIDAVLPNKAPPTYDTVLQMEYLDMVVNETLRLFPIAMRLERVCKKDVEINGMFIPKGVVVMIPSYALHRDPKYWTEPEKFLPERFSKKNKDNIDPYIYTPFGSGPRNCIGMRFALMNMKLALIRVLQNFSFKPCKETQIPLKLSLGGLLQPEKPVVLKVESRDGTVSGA

Sequence of Nitric oxide synthase 1 (P29476 whole entry): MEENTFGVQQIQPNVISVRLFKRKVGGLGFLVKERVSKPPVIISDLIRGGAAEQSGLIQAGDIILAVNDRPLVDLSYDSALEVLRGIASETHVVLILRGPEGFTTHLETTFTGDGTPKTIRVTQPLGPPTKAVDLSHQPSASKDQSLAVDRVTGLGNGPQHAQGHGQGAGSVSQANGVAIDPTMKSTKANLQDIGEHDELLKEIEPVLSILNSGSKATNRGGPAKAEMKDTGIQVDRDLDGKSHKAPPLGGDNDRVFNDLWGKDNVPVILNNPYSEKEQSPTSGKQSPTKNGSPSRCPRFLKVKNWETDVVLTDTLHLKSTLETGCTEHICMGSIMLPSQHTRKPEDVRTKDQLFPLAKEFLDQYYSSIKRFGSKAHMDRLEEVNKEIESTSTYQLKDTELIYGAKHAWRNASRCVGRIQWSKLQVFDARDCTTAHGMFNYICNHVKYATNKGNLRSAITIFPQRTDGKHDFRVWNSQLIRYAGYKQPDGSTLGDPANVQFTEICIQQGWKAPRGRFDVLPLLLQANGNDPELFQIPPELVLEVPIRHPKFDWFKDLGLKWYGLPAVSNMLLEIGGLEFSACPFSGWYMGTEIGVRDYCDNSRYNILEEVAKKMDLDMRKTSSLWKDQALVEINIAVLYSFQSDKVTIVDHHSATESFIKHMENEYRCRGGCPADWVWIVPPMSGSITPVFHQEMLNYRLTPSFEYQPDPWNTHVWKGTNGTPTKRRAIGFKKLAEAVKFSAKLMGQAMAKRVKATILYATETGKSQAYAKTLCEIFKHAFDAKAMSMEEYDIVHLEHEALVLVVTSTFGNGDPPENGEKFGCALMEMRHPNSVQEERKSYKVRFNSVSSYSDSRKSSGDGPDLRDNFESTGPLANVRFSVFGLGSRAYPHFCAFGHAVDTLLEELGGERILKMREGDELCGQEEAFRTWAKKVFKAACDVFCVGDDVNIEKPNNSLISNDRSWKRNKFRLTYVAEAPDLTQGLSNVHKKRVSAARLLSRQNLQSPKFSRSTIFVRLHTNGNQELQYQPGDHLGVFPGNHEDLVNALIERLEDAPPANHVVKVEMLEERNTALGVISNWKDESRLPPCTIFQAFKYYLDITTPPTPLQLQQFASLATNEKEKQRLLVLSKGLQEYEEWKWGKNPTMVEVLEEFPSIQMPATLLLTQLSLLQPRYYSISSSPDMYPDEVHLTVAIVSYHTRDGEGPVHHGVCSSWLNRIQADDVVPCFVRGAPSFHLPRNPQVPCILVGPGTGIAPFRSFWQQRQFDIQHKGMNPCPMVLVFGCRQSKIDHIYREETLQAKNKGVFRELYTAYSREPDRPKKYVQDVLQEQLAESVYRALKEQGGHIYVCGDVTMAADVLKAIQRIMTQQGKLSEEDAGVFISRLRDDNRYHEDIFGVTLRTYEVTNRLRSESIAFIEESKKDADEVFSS

Clc1ccccc1C(c1ccccc1)(c1ccccc1)n1ccnc1 [CLOTRIMAZOLE]
IC50 [1]: Not Active
IC50 [2]: Not Active
IC50 ([3]; read-out: IC50): 11.6 µM
Ki ([3]; read-out: Ki): 7.38 µM
IC50 [4]: Not Active
Ki [4]: Not Active
IC50 ([5]; read-out: IC50): 7.94 µM
Ki ([5]; read-out: Ki): 7.87 µM
IC50 [6]: Not Active
Ki [6]: Not Active
IC50 [7]: Not Active

COS(C)(=O)=O [METHANESULFONIC ACID METHYL ESTER]
IC50 [8]: Not Active
Ki [8]: Not Active
IC50 [9]: Not Active
IC50 [1]: Not Active
IC50 ([3]; cho-k1): Not Active
IC50 [10]: Not Active
Ki [10]: Not Active
IC50 [11]: Not Active
IC50 [12]: Not Active
Ki [12]: Not Active
IC50 [4]: Not Active
Ki [4]: Not Active
IC50 ([5]; mdck): Not Active
IC50 [6]: Not Active
Ki [6]: Not Active
IC50 [13]: Not Active
Ki [13]: Not Active
IC50 [14]: Not Active
Ki [14]: Not Active
IC50 [7]: Not Active

C[C@](N)(Cc1ccc(O)cc1)C(=O)O [METYROSINE]
IC50 [8]: Not Active
Ki [8]: Not Active
IC50 [9]: Not Active
IC50 [1]: Not Active
IC50 ([3]; cho-k1): Not Active
IC50 [10]: Not Active
Ki [10]: Not Active
IC50 [11]: Not Active
IC50 [12]: Not Active
Ki [12]: Not Active
IC50 [4]: Not Active
Ki [4]: Not Active
IC50 ([5]; mdck): Not Active
IC50 [6]: Not Active
Ki [6]: Not Active
IC50 [13]: Not Active
Ki [13]: Not Active
IC50 [14]: Not Active
Ki [14]: Not Active
IC50 [7]: Not Active

CC[C@H]1OC(=O)[C@H](C)[C@@H](O[C@H]2C[C@@](C)(OC)[C@@H](O)[C@H](C)O2)[C@H](C)[C@@H](O[C@@H]2O[C@H](C)C[C@H](N(C)C)[C@H]2O)[C@](C)(O)C[C@@H](C)/C(=N\OCOCCOC)[C@H](C)[C@@H](O)[C@]1(C)O [ROXITHROMYCIN]
IC50 [8]: Not Active
Ki [8]: Not Active
IC50 [9]: Not Active
IC50 [1]: Not Active
IC50 ([3]; cho-k1): Not Active
IC50 [10]: Not Active
Ki [10]: Not Active
IC50 [11]: Not Active
IC50 [12]: Not Active
Ki [12]: Not Active
IC50 [4]: Not Active
Ki [4]: Not Active
IC50 ([5]; mdck): Not Active
IC50 [6]: Not Active
Ki [6]: Not Active
IC50 [13]: Not Active
Ki [13]: Not Active
IC50 [14]: Not Active
Ki [14]: Not Active
IC50 [7]: Not Active

NC(CO)(CO)CO [TROMETHAMINE]
IC50 [8]: Not Active
Ki [8]: Not Active
IC50 [9]: Not Active
IC50 [1]: Not Active
IC50 ([3]; cho-k1): Not Active
IC50 [10]: Not Active
Ki [10]: Not Active
IC50 [11]: Not Active
IC50 [12]: Not Active
Ki [12]: Not Active
IC50 [4]: Not Active
Ki [4]: Not Active
IC50 ([5]; mdck): Not Active
IC50 [6]: Not Active
Ki [6]: Not Active
IC50 [13]: Not Active
Ki [13]: Not Active
IC50 [14]: Not Active
Ki [14]: Not Active
IC50 [7]: Not Active

COC(=O)[C@@H]1[C@H]2C[C@H]3c4[nH]c5ccccc5c4CCN3C[C@@H]2CC[C@@H]1O [YOHIMBINE]
IC50 [8]: Not Active
Ki [8]: Not Active
IC50 [9]: Not Active
IC50 [1]: Not Active
IC50 [2]: Not Active
IC50 [10]: Not Active
Ki [10]: Not Active
IC50 ([5]; mdck): Not Active
IC50 [6]: Not Active
Ki [6]: Not Active
IC50 [13]: Not Active
Ki [13]: Not Active
IC50 [7]: Not Active
